Reference: patent US20030036524A1, “Method of sensitising endothelial cells to prodrugs” (priority 2000, published 2003)

Tested on: HUVEC cells
Assay: Functional bio-assay: endothelial cell proliferation of Ad5C2B1-infected HUVEC cells treated with ifosfamide, crystal-violet cell number
Format: cell-based, human
Settings: day 8
Procedure: To test the bioactivity of the CYP2B1 transgene, human umbilical vein […] (HUVEC) cells [Jaffe et al.; J. Clin. Invest.
HUVEC cells were infected with Ad5C2B1 on day 2 with concentrations ranging from 0 to 2×10^8 PFU/ml for 2 hours.
The cells were seeded at 40.000 cells/well at day 3 (some wells were not sub-cultured but saved for cell extracts and medium collection at day 4).
HUVEC cells were grown on gelatin-coated tissue culture dishes in medium 199 (Biowhitakker), supplemented with 10% (vol/vol) human serum, 10% (v/v) heat-inactivated newborn calf serum (Biowhitakker), 5 U/mL of heparin (Leo Pharma BV), […] of crude EC growth factor (TNO-PG, Leiden), 100 U/mL of penicillin, and […] of streptomycin (Biowhitakker). Cells were grown at 37° C. in a humid atmosphere with 5% (vol/vol) CO2.
Cell numbers were determined at day 8 using crystal-violet staining and optical density measurement.
To quantify the effect off viral infection and prodrug treatment the cells numbers were determined as described above.

O=P1(NCCCl)OCCCN1CCCl (stereo not drawn) [Ifosfamide, ifosfamide]
Number of Cells (Virus 0 PFU/ml, Ifosfamide 0.0625 mM): 152000 | Number of Cells (Virus 0 PFU/ml, Ifosfamide 0.125 mM): 151600 | Number of Cells (Virus 0 PFU/ml, Ifosfamide 0.25 mM): 152500 | Number of Cells (Virus 0 PFU/ml, Ifosfamide 0.50 mM): 116000 | Number of Cells (Virus 1 × 10^8 PFU/ml, Ifosfamide 0.0625 mM): 80500 | Number of Cells (Virus 1 × 10^8 PFU/ml, Ifosfamide 0.125 mM): 63600 | Number of Cells (Virus 1 × 10^8 PFU/ml, Ifosfamide 0.25 mM): 66000 | Number of Cells (Virus 1 × 10^8 PFU/ml, Ifosfamide 0.50 mM): 38500 | Number of Cells (Virus 1.25 × 10^7 PFU/ml, Ifosfamide 0.0625 mM): 98000 | Number of Cells (Virus 1.25 × 10^7 PFU/ml, Ifosfamide 0.125 mM): 110000 | Number of Cells (Virus 1.25 × 10^7 PFU/ml, Ifosfamide 0.25 mM): 102000 | Number of Cells (Virus 1.25 × 10^7 PFU/ml, Ifosfamide 0.50 mM): 85000 | Number of Cells (Virus 2 × 10^8 PFU/ml, Ifosfamide 0.0625 mM): 60000 | Number of Cells (Virus 2 × 10^8 PFU/ml, Ifosfamide 0.125 mM): 54000 | Number of Cells (Virus 2 × 10^8 PFU/ml, Ifosfamide 0.25 mM): 53000 | Number of Cells (Virus 2 × 10^8 PFU/ml, Ifosfamide 0.50 mM): 30000 | Number of Cells (Virus 2.5 × 10^7 PFU/ml, Ifosfamide 0.0625 mM): 88000 | Number of Cells (Virus 2.5 × 10^7 PFU/ml, Ifosfamide 0.125 mM): 85000 | Number of Cells (Virus 2.5 × 10^7 PFU/ml, Ifosfamide 0.25 mM): 79200 | Number of Cells (Virus 2.5 × 10^7 PFU/ml, Ifosfamide 0.50 mM): 56000 | Number of Cells (Virus 5 × 10^7 PFU/ml, Ifosfamide 0.0625 mM): 87000 | Number of Cells (Virus 5 × 10^7 PFU/ml, Ifosfamide 0.125 mM): 85000 | Number of Cells (Virus 5 × 10^7 PFU/ml, Ifosfamide 0.25 mM): 75000 | Number of Cells (Virus 5 × 10^7 PFU/ml, Ifosfamide 0.50 mM): 55000
